Consider eight compounds from patent US4526989A, “1,4-Bis (substituted-amino)-5,8-dihydroxy-anthraquinones and leuco bases thereof” (priority 1979, dated 1985).

This test relates to lymphocytic leukemia P388. Description: Lymphocytic leukemia P388 test (intraperitoneal administration). Format: in vivo, DBA/2 mice. How it is done:
The animals used are DBA/2 mice all of one sex, weighing a minimum of 17 g. and all within a 3 gram weight range. There are 5 or 6 animals per test group. The tumor transplant is by intraperitoneal injection of 0.1 ml. of dilute ascitic fluid containing 10^6 cells of lymphocytic leukemia P388. The test compounds are administered intraperitoneally on days one, 5 and 9 (relative to tumor inoculation) at various doses. The animals are weighed and survivors are recorded on a regular basis for 30 days. The median survival time and the ratio of survival time for treated (T)/control (C) animals are calculated.

Setting [1] is: 6.25 mg./kg. i.p., days 1, 5 and 9.
Where [2] appears, read: 12.5 mg./kg. i.p., days 1, 5 and 9.
Where [3] appears, read: 25 mg./kg. i.p., days 1, 5 and 9.
[4] abbreviates: 50 mg./kg. i.p., days 1, 5 and 9.
Where [5] appears, read: 100 mg./kg. i.p., days 1, 5 and 9.
Where [6] appears, read: 200 mg./kg. i.p., days 1, 5 and 9.
Setting [7] is: Mus musculus, P388, ip, 6.25 mg./kg. i.p., days 1, 5 and 9, efficacy ≥125%, read-out: T/C × 100.
Where [8] appears, read: Mus musculus, P388, ip, 12.5 mg./kg. i.p., days 1, 5 and 9, efficacy ≥125%, read-out: T/C × 100.
Where [9] appears, read: Mus musculus, P388, ip, 25 mg./kg. i.p., days 1, 5 and 9, efficacy ≥125%, read-out: T/C × 100.
Where [10] appears, read: Mus musculus, P388, ip, 50 mg./kg. i.p., days 1, 5 and 9, efficacy ≥125%, read-out: T/C × 100.
[11] abbreviates: Mus musculus, P388, ip, 100 mg./kg. i.p., days 1, 5 and 9, efficacy ≥125%, read-out: T/C × 100.
Setting [12] is: Mus musculus, P388, ip, 200 mg./kg. i.p., days 1, 5 and 9, efficacy ≥125%, read-out: T/C × 100.
The mark [13] stands for this setting: 0.78 mg./kg. i.p., days 1, 5 and 9.
The mark [14] stands for this setting: 1.56 mg./kg. i.p., days 1, 5 and 9.
The mark [15] stands for this setting: 3.1 mg./kg. i.p., days 1, 5 and 9.
Where [16] appears, read: Mus musculus, P388, ip, 0.78 mg./kg. i.p., days 1, 5 and 9, efficacy ≥125%, read-out: T/C × 100.
Where [17] appears, read: Mus musculus, P388, ip, 1.56 mg./kg. i.p., days 1, 5 and 9, efficacy ≥125%, read-out: T/C × 100.
Where [18] appears, read: Mus musculus, P388, ip, 3.1 mg./kg. i.p., days 1, 5 and 9, efficacy ≥125%, read-out: T/C × 100.
The mark [19] stands for this setting: 6.2 mg./kg. i.p., days 1, 5 and 9.
[20] abbreviates: Mus musculus, P388, ip, 6.2 mg./kg. i.p., days 1, 5 and 9, efficacy ≥125%, read-out: T/C × 100.

Read-outs that look alike come from different tables or passages of the source.

As to `O=C1C2=C(NCCCNCCO)CCC(NCCCNCCO)=C2C(=O)c2c(O)ccc(O)c21` [Leuco-1,4-bis[3-(2-hydroxyethylamino)-1-propylamino]-5,8-dihydroxyanthraquinone], the “Median Survival Time” value is, setting by setting: (3.12 mg./kg. i.p., days 1, 5 and 9) 15.0 days; under setting [1], 18.0 days; under setting [2], 19.0 days; under setting [3], 18.5 days; under setting [4], 25.0 days; under setting [5], 27.5 days. Further, under setting [6], the “Median Survival Time” value worked out at 33.5 days. Also, for the setting “Mus musculus, P388, ip, 3.12 mg./kg. i.p., days 1, 5 and 9, efficacy ≥125%, read-out: T/C × 100”, the response vs control in vivo at 3.12 mg/kg amounted to 136%. Further, the response vs control in vivo at 6.25 mg/kg under setting [7] stood at 164%. Besides, the response vs control in vivo at 12.5 mg/kg under setting [8] was 173%. Under setting [9], the response vs control in vivo at 25 mg/kg worked out at 168%. Further, the response vs control in vivo at 50 mg/kg under setting [10] is 227%. The response vs control in vivo at 100 mg/kg under setting [11] was 250%. For the same compound, the response vs control in vivo at 200 mg/kg under setting [12] stood at 305%.

For `O=C1C2=C(NCCNCCCO)CCC(NCCNCCCO)=C2C(=O)c2c(O)ccc(O)c21` [Leuco-1,4-bis[2-(3-hydroxy-1-propylamino)ethylamino]-5,8-dihydroxyanthraquinone], the “Median Survival Time” value turned out to be 18.0 days under setting [13]; 19.5 days under setting [14]; 18.5 days under setting [15]; 16.5 days under setting [1]; 19.5 days under setting [2]; 22.0 days under setting [3]. Also, the “Median Survival Time” value under setting [4] came to 34.0 days, the “Median Survival Time” value under setting [5] came to 38.0 days and the “Median Survival Time” value under setting [6] turned out to be 14.0 days. The response vs control in vivo at 25 mg/kg (Mus musculus, P388, ip, read-out: T/C × 100) was 200%. Moreover, the response vs control in vivo at 0.78 mg/kg under setting [16] was 164%. For the same compound, under setting [17], the response vs control in vivo at 1.56 mg/kg was determined as 177%. Further, under setting [18], the response vs control in vivo at 3.1 mg/kg worked out at 168%. Under setting [7], the response vs control in vivo at 6.25 mg/kg came out at 150%. Also, the response vs control in vivo at 12.5 mg/kg under setting [8] stood at 177%. The response vs control in vivo at 50 mg/kg under setting [10] was found to be 309%. In addition, the response vs control in vivo at 100 mg/kg under setting [11] came out at 345%. Moreover, the response vs control in vivo at 200 mg/kg under setting [12] worked out at 127%.

Turning to `CC(O)CNCCNc1ccc(NCCNCC(C)O)c2c1C(=O)c1c(O)ccc(O)c1C2=O.Cl.Cl` (stereo not drawn) [1,4-Bis[2-(2-hydroxy-1-propylamino)ethylamino]-5,8-dihydroxyanthraquinone dihydrochloride], the “Median Survival Time” value reads like this: (0.39 mg./kg. i.p., days 1, 5 and 9) 17.5 days; under setting [13], 19.0 days; under setting [14], 19.0 days; under setting [15], 22.0 days; under setting [19], 23.0 days; under setting [2], 24.0 days. For the same compound, the “Median Survival Time” value under setting [3] turned out to be 12.0 days. The response vs control in vivo at 0.39 mg/kg (Mus musculus, P388, ip, 0.39 mg./kg. i.p., days 1, 5 and 9, efficacy ≥125%, read-out: T/C × 100) turned out to be 175%. In addition, the response vs control in vivo at 0.78 mg/kg under setting [16] was determined as 190%. Besides, the response vs control in vivo at 1.56 mg/kg under setting [17] stood at 190%. Moreover, the response vs control in vivo at 3.1 mg/kg under setting [18] turned out to be 220%. In addition, the response vs control in vivo at 6.2 mg/kg under setting [20] turned out to be 230%. The response vs control in vivo at 12.5 mg/kg under setting [8] is 240%. The response vs control in vivo at 25 mg/kg under setting [9] worked out at 120%.

Consider `O=C1C2=C(NCCN3CCOCC3)CCC(NCCN3CCOCC3)=C2C(=O)c2c(O)ccc(O)c21` [Leuco-1,4-bis(2-morpholinoethylamino)-5,8-dihydroxyanthraquinone], for which the “Median Survival Time” value runs as follows: under setting [3], 12.0 days; under setting [4], 11.0 days; under setting [5], 12.0 days; under setting [6], 13.0 days. Moreover, the response vs control in vivo at 25 mg/kg under setting [9] worked out at 126%. The response vs control in vivo at 50 mg/kg under setting [10] worked out at 116%. Besides, the response vs control in vivo at 100 mg/kg under setting [11] turned out to be 126%. Besides, the response vs control in vivo at 200 mg/kg under setting [12] was found to be 137%.

As to `CC(O)CNCCNC1=C2C(=O)c3c(O)ccc(O)c3C(=O)C2=C(NCCNCC(C)O)CC1` (stereo not drawn) [Leuco-1,4-bis[2-(2-hydroxy-1-propylamino)ethylamino]-5,8-dihydroxyanthraquinone], the “Median Survival Time” value runs as follows: under setting [1], 20.0 days; under setting [2], 21.5 days; under setting [3], 20.5 days; under setting [4], 24.0 days; under setting [5], 26.5 days; under setting [6], 9.0 days. Further, the response vs control in vivo at 6.25 mg/kg under setting [7] amounted to 182%. Also, the response vs control in vivo at 12.5 mg/kg under setting [8] worked out at 195%. In addition, under setting [9], the response vs control in vivo at 25 mg/kg was found to be 186%. For the same compound, the response vs control in vivo at 50 mg/kg under setting [10] came out at 218%. For the same compound, under setting [11], the response vs control in vivo at 100 mg/kg turned out to be 241%. In addition, under setting [12], the response vs control in vivo at 200 mg/kg worked out at 82%.

Take `CNCCNCCNc1ccc(NCCNCCNC)c2c1C(=O)c1c(O)ccc(O)c1C2=O.Cl.Cl.Cl.Cl` [1,4-Bis[2-(2-methylaminoethylamino)ethylamino]-5,8-dihydroxyanthraquinone Tetrahydrochloride]: the “Median Survival Time” value stood at 13.5 days (1.12 mg./kg. i.p., days 1, 5 and 9); 13.0 days under setting [14]; 16.0 days under setting [1]; 17.0 days under setting [2]; 19.5 days under setting [3]; 22.0 days under setting [4]. For the same compound, the “Median Survival Time” value under setting [5] is 22.0 days. Besides, the response vs control in vivo at 1.12 mg/kg (Mus musculus, P388, ip, 1.12 mg./kg. i.p., days 1, 5 and 9, efficacy ≥125%, read-out: T/C × 100) is 135%. Under setting [17], the response vs control in vivo at 1.56 mg/kg worked out at 130%. Moreover, the response vs control in vivo at 6.25 mg/kg under setting [7] turned out to be 160%. Besides, under setting [8], the response vs control in vivo at 12.5 mg/kg turned out to be 170%. Further, the response vs control in vivo at 25 mg/kg under setting [9] turned out to be 195%. Moreover, under setting [10], the response vs control in vivo at 50 mg/kg came out at 220%. Moreover, under setting [11], the response vs control in vivo at 100 mg/kg came to 220%.

For the compound `O=C1c2c(O)ccc(O)c2C(=O)c2c(NCCN3CCOCC3)ccc(NCCN3CCOCC3)c21` [1,4-Bis(2-morpholinoethylamino)-5,8-dihydroxyanthraquinone], the “Median Survival Time” value under setting [5] came out at 12.0 days and the “Median Survival Time” value under setting [6] came out at 14.0 days. Also, the response vs control in vivo at 100 mg/kg under setting [11] is 126%. Further, the response vs control in vivo at 200 mg/kg under setting [12] is 147%.

Regarding `Cl.Cl.O=C1c2c(O)ccc(O)c2C(=O)c2c(NCCN(CCO)CCO)ccc(NCCN(CCO)CCO)c21` [1,4-Bis[2-[di(β-hydroxyethyl)amino]ethylamino]-5,8-dihydroxyanthraquinone dihydrochloride], the “Median Survival Time” value is, setting by setting: under setting [13], 14.5 days; under setting [14], 16.0 days; under setting [15], 19.0 days; under setting [19], 18.5 days; under setting [2], 18.5 days; under setting [3], 21.5 days. The “Median Survival Time” value runs as follows: under setting [4], 20.5 days; under setting [5], 22.0 days; under setting [6], over 30.0 days. Further, the response vs control in vivo at 0.78 mg/kg under setting [16] was found to be 161%. Under setting [17], the response vs control in vivo at 1.56 mg/kg stood at 178%. Under setting [18], the response vs control in vivo at 3.1 mg/kg was found to be 211%. Also, the response vs control in vivo at 6.2 mg/kg under setting [20] was determined as 206%. Further, the response vs control in vivo at 12.5 mg/kg under setting [8] turned out to be 206%. Besides, the response vs control in vivo at 25 mg/kg under setting [9] amounted to 239%. Further, the response vs control in vivo at 50 mg/kg under setting [10] amounted to 228%. Further, the response vs control in vivo at 100 mg/kg under setting [11] amounted to 244%. Further, the response vs control in vivo at 200 mg/kg under setting [12] was over 333%.
